Measured values reported in patent US8574563B2 (Bristol-Myers Squibb Company, priority 2006, dated 2013).

These molecules were tested on HCV 1b-377-neo replicon cells (assay: HCV replicon assay, HCV 1b-377-neo replicon cells (1b FRET)). Details: HCV 1b-377-neo replicon cells; HCV 1b genotype; read-out: EC50 range against HCV 1b (Table 2, Range).
Assay type: cell-based, Hepatitis C virus genotype 1b
Outline: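 Compounds tested in HCV genotype 1b-377-neo replicon cells with a FRET read-out. Cells resistant to a reference NS5A inhibitor through a Y2065H NS5A mutation were run alongside wild-type cells.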
Molecule `CCC[C@H](NC(=O)OC)C(=O)N1CCC[C@H]1c1ncc(-c2ccc(-c3ccc(-c4cnc([C@@H]5CCCN5C(=O)[C@@H](NC(=O)OC)C(C)C)[nH]4)cc3)cc2)[nH]1` [Example M75, methyl ((1S)-1-(((2S)-2-(5-(4′-(2-((2S)-1-((2S)-2-((methoxycarbonyl)amino)-3-methylbutanoyl)-2-pyrrolidinyl)-1H-imidazol-5-yl)-4-biphenylyl)-1H-imidazol-2-yl)-1-pyrrolidinyl)carbonyl)butyl) carbamate] has an EC50 of 1 to 99 nM.
Work on `COC(=O)N[C@@H](C(=O)N1CCC[C@H]1c1ncc(-c2ccc(-c3ccc(-c4cnc([C@@H]5CCCN5C(=O)c5ccncc5)[nH]4)cc3)cc2)[nH]1)c1ccccc1` [Example 69, methyl ((1R)-2-((2S)-2-(5-(4′-(2-((2S)-1-isonicotinoyl-2-pyrrolidinyl)-1H-imidazol-5-yl)-4-biphenylyl)-1H-imidaozl-2-yl)-1-pyrrolidinyl)-2-oxo-1-phenylethyl)carbamate] yielded an EC50 of 0.001 to 0.999 nM.
`COC(=O)N[C@H](C(=O)N1CCC[C@H]1c1ncc(-c2ccc(-c3ccc(-c4cnc([C@@H]5CCCN5C(=O)CC(C)C)[nH]4)cc3)cc2)[nH]1)C(C)C` [Example M81, methyl ((1S)-2-methyl-1-(((2S)-2-(5-(4′-(2-((2S)-1-(3-methylbutanoyl)-2-pyrrolidinyl)-1H-imidazol-5-yl)-4-biphenylyl)-1H-imidazol-2-yl)-1-pyrrolidinyl)carbonyl)propyl) carbamate] was tested, and the EC50 was 100 to 999 nM.

Same assay, conditions: Hepatitis C virus, HCV 1b-377-neo replicon cells; HCV 1b genotype; read-out: EC50 range against HCV 1b (Table 2, Range)
Molecule `CN(C)[C@@H](C(=O)N1CCC[C@H]1c1ncc(-c2ccc(-c3ccc(-c4cnc([C@@H]5CCCN5C(=O)[C@@H](c5ccccc5)N5CCCCC5)[nH]4)cc3)cc2)[nH]1)c1ccccc1` [Example 28-1, (1R)—N,N-dimethyl-2-oxo-1-phenyl-2-((2S)-2-(5-(4′-(2-((2S)-1-((2R)-2-phenyl-2-(1-piperidinyl)acetyl)-2-pyrrolidinyl)-1H-imidazol-5-yl)-4-biphenylyl)-1H-imidazol-2-yl)-1-pyrrolidinyl)ethanamine] has an EC50 of 0.001 to 0.999 nM.
Molecule `COC(=O)N[C@@H](Cc1c[nH]nn1)C(=O)N1CCC[C@H]1c1ncc(-c2ccc(-c3ccc(-c4cnc([C@@H]5CCCN5C(=O)[C@H](Cc5c[nH]nn5)NC(=O)OC)[nH]4)cc3)cc2)[nH]1` [cj-125, methyl ((1S)-2-((2S)-2-(5-(4′-(2-((2S)-1-((2S)-2-((methoxycarbonyl)amino)-3-(1H-1,2,3-triazol-4-yl)propanoyl)-2-pyrrolidinyl)-1H-imidazol-5-yl)-4-biphenylyl)-1H-imidazol-2-yl)-1-pyrrolidinyl)-2-oxo-1-(1H-1,2,3-triazol-4-ylmethyl)ethyl)carbamate] has an EC50 of 1 to 99 nM.
Work on `CC(=O)OC(C(=O)N1CCC[C@H]1c1ncc(-c2ccc(-c3ccc(-c4cnc([C@@H]5CCCN5C(=O)[C@@H](c5ccccc5)N5CCCCC5)[nH]4)cc3)cc2)[nH]1)c1ccccc1` (stereo in doubt) [Example 107-1, (1S)-2-oxo-1-phenyl-2-((2S)-2-(5-(4′-(2-((2S)-1-((2R)-2-phenyl-2-(1-piperidinyl)acetyl)-2-pyrrolidinyl)-1H-imidazol-5-yl)-4-biphenylyl)-1H-imidazol-2-yl)-1-pyrrolidinyl) ethyl acetate] yielded an EC50 of 0.001 to 0.999 nM.
Molecule `COC(=O)N[C@@H](C(=O)N1CCC[C@H]1c1ncc(-c2ccc(-c3ccc(-c4cnc([C@@H]5CCCN5C(=O)[C@H](NC(=O)OC)c5ccccc5)[nH]4)c(F)c3)cc2)[nH]1)c1ccccc1` [Example D46, dimethyl ((3-fluoro-4,4′-biphenyldiyl)bis(1H-imidazole-5,2-diyl(2S)-2,1-pyrrolidinediyl((1R)-2-oxo-1-phenyl-2,1-ethanediyl))) biscarbamate] has an EC50 of 0.001 to 0.999 nM.
`O=C([C@H]1CCCO1)N1CSC[C@H]1c1ncc(-c2ccc(-c3ccc(-c4cnc([C@@H]5CSCN5C(=O)[C@H]5CCCO5)[nH]4)cc3)cc2)[nH]1` [Example 150, (4R,4′R)-4,4′-(4,4′-biphenyldiylbis(1H imidazole-5,2-diyl))bis(3-((2R)-tetrahydro-2-furanylcarbonyl)-1,3-thiazolidine)] was tested, and the EC50 was 1 to 99 nM.
Molecule `CN(C)[C@@H](C(=O)N1CCC[C@H]1c1ncc(-c2ccc(-c3ccc(-c4cnc([C@@H]5CCCN5C(=O)Cc5cccc6ccccc56)[nH]4)cc3)cc2)[nH]1)c1ccccc1` [Example 94-49, (1R)-N,N-dimethyl-2-((2S)-2-(5-(4′-(2-((2S)-1-(1-naphthylacetyl)-2-pyrrolidinyl)-1H-imidazol-5-yl)-4-biphenylyl)-1H-imidazol-2-yl)-1-pyrrolidinyl)-2-oxo-1-phenylethanamine] has an EC50 of 0.001 to 0.999 nM.
For `COC(=O)N[C@@H](C)C(=O)N1C[C@H](O)C[C@H]1c1ncc(-c2ccc(-c3ccc(-c4cnc([C@@H]5C[C@@H](O)CN5C(=O)[C@H](C)NC(=O)OC)[nH]4)cc3)cc2)[nH]1` [JG-4], the EC50 was 1 to 99 nM.
Work on `CC[C@H](NC(=O)OC)C(=O)N1CCC[C@H]1c1ncc(-c2ccc(-c3ccc(-c4cnc([C@@H]5CCCN5C(=O)[C@@H](c5ccccc5)N(CC)CC)[nH]4)cc3)cc2)[nH]1` [Example M55, methyl ((1S)-1-(((2S)-2-(5-(4′-(2-((2S)-1-((2R)-2-(diethylamino)-2-phenylacetyl)-2-pyrrolidinyl)-1H-imidazol-5-yl)-4-biphenylyl)-1H-imidazol-2-yl)-1-pyrrolidinyl)carbonyl)propyl)carbamate] yielded an EC50 of 1 to 99 nM.
`C[C@H](NC(=O)N(C)C)C(=O)N1CCC[C@H]1c1ncc(-c2ccc(-c3ccc(-c4cnc([C@@H]5CCCN5C(=O)[C@H](C)NC(=O)N(C)C)[nH]4)cc3)cc2)[nH]1` [OL-2, 3-((1S)-2-((2S)-2-(4-(4′-(2-((2S)-1-(N-(dimethylcarbamoyl)-L-alanyl)-2-pyrrolidinyl)-1H-imidazol-4-yl)-4-biphenylyl)-1H-imidazol-2-yl)-1-pyrrolidinyl)-1-methyl-2-oxoethyl)-1,1-dimethylurea] showed an EC50 of 0.001 to 0.999 nM.
In the case of `COC(=O)N[C@H](C(=O)N1CCC[C@H]1c1nc(-c2ccc(-c3ccc(-c4c[nH]c([C@@H]5CCCN5C(=O)CNC5CCOCC5)n4)cc3)cc2)c[nH]1)C(C)C` [Example F51, methyl ((1S)-2-methyl-1-(((2S)-2-(4-(4′-(2-((2S)-1-(N-(tetrahydro-2H-pyran-4-yl)glycyl)-2-pyrrolidinyl)-1H-imidazol-4-yl)-4-biphenylyl)-1H-imidazol-2-yl)-1-pyrrolidinyl)carbonyl)propyl)carbamate], the EC50 is reported as 0.001 to 0.999 nM.
With `COC(=O)N[C@H](C(=O)N1CCC[C@H]1c1ncc(-c2ccc(-c3ccc(-c4cnc([C@@H]5CCCN5C(=O)[C@@H](NC(=O)OC)C5CC5)[nH]4)cc3)cc2)[nH]1)C(C)C` [Example M77, methyl ((1S)-1-(((2S)-2-(5-(4′-(2-((2S)-1-((2S)-2-cyclopropyl-2-((methoxycarbonyl)amino)acetyl)-2-pyrrolidinyl)-1H-imidazol-5-yl)-4-biphenylyl)-1H-imidazol-2-yl)-1-pyrrolidinyl)carbonyl)-2-methylpropyl)carbamate] the EC50 was 1 to 99 nM.
Work on `CCN(CC)[C@@H](C(=O)N1CCC[C@H]1c1ncc(-c2ccc(-c3ccc(-c4cnc([C@@H]5CCCN5C(=O)[C@H](NC(=O)OC)c5ccccc5)[nH]4)cc3)cc2)[nH]1)c1ccccc1` [Example M47, methyl ((1R)-2-((2S)-2-(5-(4′-(2-((2S)-1-((2R)-2-(diethylamino)-2-phenylacetyl)-2-pyrrolidinyl)-1H-imidazol-5-yl)-4-biphenylyl)-1H-imidazol-2-yl)-1-pyrrolidinyl)-2-oxo-1-phenylethyl)carbamate] yielded an EC50 of 1 to 99 nM.
With `COC(=O)NC(C(=O)N1CCC[C@H]1c1ncc(-c2ccc(-c3ccc(-c4cnc([C@@H]5CCCN5C(=O)[C@@H](NC(=O)OC)C(C)C)[nH]4)cc3)cc2F)[nH]1)[C@@H](C)OC` (stereo in doubt) [Example D42, methyl ((1S,2R)-1-(((2S)-2-(5-(3-fluoro-4′-(2-((2S)-1-(N-(methoxycarbonyl)-L-valyl)-2-pyrrolidinyl)-1H-imidazol-5-yl)-4-biphenylyl)-1H-imidazol-2-yl)-1-pyrrolidinyl)carbonyl)-2-methoxypropyl) carbamate] the EC50 was 0.001 to 0.999 nM.
Work on `CNC(=O)N[C@@H](C(=O)N1CCC[C@H]1c1ncc(-c2ccc(-c3ccc(-c4cnc([C@@H]5CCCN5C(=O)[C@H](NC(=O)NC)c5ccccc5)[nH]4)cc3)cc2)[nH]1)c1ccccc1` [Example 24-4b, N′,N′′′-(4,4′-biphenyldiylbis(1H-imidazole-5,2-diyl(2S)-2,1-pyrrolidinediyl((1R)-2-oxo-1-phenyl-2,1-ethanediyl)))bis(1-methylurea)] yielded an EC50 of 1 to 99 nM.
`COC(=O)N[C@@H](C)C(=O)N1CC2(CC2)C[C@H]1c1nc(-c2ccc(-c3ccc(-c4c[nH]c([C@@H]5CC6(CC6)CN5C(=O)[C@H](C)NC(=O)OC)n4)cc3)cc2)c[nH]1` [Example M147, methyl ((1S)-2-((6S)-6-(4-(4′-(2-((6S)-5-(N-(methoxycarbonyl)-L-alanyl)-5-azaspiro[2.4]hept-6-yl)-1H-imidazol-4-yl)-4-biphenylyl)-1H-imidazol-2-yl)-5-azaspiro[2.4]hept-5-yl)-1-methyl-2-oxoethyl)carbamate] was tested, and the EC50 was 0.001 to 0.999 nM.
Work on `CCN(CC)[C@@H](C(=O)N1CCC[C@H]1c1ncc(-c2cnc(-c3ccc(-c4[nH]c([C@@H]5CCCN5C(=O)[C@@H](c5ccccc5)N(CC)CC)nc4C(F)(F)F)cc3)nc2)[nH]1)c1ccccc1` [Example J47, (1R)-2-((2S)-2-(5-(4-(5-(2-((2S)-1-((2R)-2-(diethylamino)-2-phenylacetyl)-2-pyrrolidinyl)-1H-imidazol-5-yl)-2-pyrimidinyl)phenyl)-4-(trifluoromethyl)-1H-imidazol-2-yl)-1-pyrrolidinyl)-N,N-diethyl-2-oxo-1-phenylethanamine] yielded an EC50 of 0.001 to 0.999 nM.
In the case of `CC(C)[C@H](NC(=O)OCCF)C(=O)N1CCC[C@H]1c1ncc(-c2ccc(-c3ccc(-c4cnc([C@@H]5CCCN5C(=O)[C@@H](NC(=O)OCCF)C(C)C)[nH]4)cc3)cc2)[nH]1` [OL-3, 2-fluoroethyl ((1S)-1-(((2S)-2-(4-(4′-(2-((2S)-1-((2S)-2-(((2-fluoroethoxy)carbonyl)amino)-3-methylbutanoyl)-2-pyrrolidinyl)-1H-imidazol-4-yl)-4-biphenylyl)-1H-imidazol-2-yl)-1-pyrrolidinyl)carbonyl)-2-methylpropyl)carbamate], the EC50 is reported as 1 to 99 nM.
